Results: patent US11471508B2, “HMGB1 antagonist treatment of diabetic peripheral neuropathy” (THE FEINSTEIN INSTITUTES FOR MEDICAL RESEARCH, priority 2019, dated 2022)
Entries after “also recorded” stand apart in the source; their conditions may differ. Where two headings read alike, the source gives them in different places.

Assays:
[1] = Oral bioavailability; settings: in vivo
[2] = male, Sprague-Dawley, rat, in vivo
[3] = type: in vivo; settings: single-dose, rats
[4] = Stability under acidic conditions (pH=2), LC-MS; type: physicochemical; settings: pH=2, two hours
[5] = tested on: liver ischemia and reperfusion injury; test: Warm liver ischemia and reperfusion (I/R) model; type: in vivo, mouse; settings: 6 hours after reperfusion, vs vehicle control
Protocol: […] (SEQ ID NO: 1) (or vehicle control) was administered intraperitoneally at 500 μg/mouse at the time of I/R surgery and euthanized 6 hours later. Serum levels of ALT and AST were reduced in […] (SEQ ID NO: 1)-treated group vs. vehicle controls. *: P<0.05 vs. I/R group. n=5-7 mice/group. […] (SEQ ID NO: 1)-treated mice as compared to vehicle control (neutrophil infiltration, arrow). n=3-5 mice per group.

[6] = tested on: STZ-induced diabetes; test: STZ-induced diabetes; type: in vivo; settings: repetitive administration, 500 μg/mouse
Protocol: In Example 21, the effect of selective HMGB1-TLR4/MD-2 inhibition in STZ-induced diabetes was evaluated. Increased levels of HMGB1 have been reported in both diabetic patients and animal models. For example, elevated expression of HMGB1 is found in the retinas of diabetic patients and rat models with retinopathy. ([…]., Upregulation of RAGE and its ligands in proliferative retinal disease, Experimental Eye Research, 2006; 82(5): 807-815; Yu Y., The role of high mobility group box 1 (HMGB-1) in the diabetic retinopathy inflammation and apoptosis, International Journal of Clinical and Experimental Pathology, 2015; 8(6): 6807). […] (Dasu M. […] Based on this literature, tests were conducted on the effects of […] (SEQ ID NO: 1) and […] on STZ-induced diabetes in mice. Mice were administered repetitive administration of […] (500 μg/mouse). […] Repetitive administration of […] was therefore shown to be beneficial in STZ-induced diabetes. […] (*: P<0.05 vs. PBS group. N=6-8 mice per group).

[7] = tested on: HMGB1-induced TNF release; test: HMGB1-induced TNF release in human primary macrophages (ELISA); type: cell-based; settings: FIG. 17A
Protocol: For all of these studies, TNF released was measured using an ELISA.

[8] = tested on: APAP-induced liver injury; test: APAP-induced liver injury model; type: in vivo, mouse
[9] = Degradation in rat plasma and whole blood; type: in vitro ADME
[10] = tested on: DAMPs (CIRP, SAA, PEDF, HSP 70, HSP90, H2A)-induced TNF secretion; test: DAMPs-induced TNF secretion in human macrophages; type: cell-based; settings: 16 hours
[11] = tested on: PAMPs (LPS, PGN, AGE and Poly I:C)-induced TNF release; test: PAMPs-induced TNF release in human macrophages; type: cell-based; settings: LPS 4 ng/ml, poly I:C 50 μg/ml, PGN 5 μg/ml, S100A12 50 μg/ml; 16 hours
Protocol: TNF released was measured.

[12] = tested on: CCI-induced neuropathic pain; test: Chronic constriction injury of the sciatic nerve (CCI) neuropathic pain model; type: in vivo, rat
[13] = Pharmacokinetics after intravenous administration at 1 mg/kg in male Sprague-Dawley rats (LC-MS); settings: Mean
[14] = in vivo; settings: male, Sprague-Dawley, rat, iv, 1 mg/kg, AUCtest
[15] = tested on: liver ischemia and reperfusion injury; settings: cited from earlier work
[16] = tested on: HMGB1-induced TNF release; settings: cited from earlier work
[17] = tested on: APAP-induced liver injury; settings: cited from earlier work
[18] = tested on: TNF release stimulated by LPS, PGN, Poly I:C, CpG DNA or S100 A12; settings: cited from earlier work

NC(=O)N(CCC(=O)O)NC(=O)[C@H](CO)NC(=O)[C@H](CO)NC(=O)N(N)Cc1ccccc1 [K883]
oral bioavailability [1]: low
Plasma concentration ([2]; 0.5 hr): 2500 ng/mL
Plasma concentration ([2]; 1 hr): 1300 ng/mL
Plasma concentration ([2]; 2 hr): 130 ng/mL
Plasma concentration ([2]; 6 hr): 5.10 ng/mL
Plasma concentration ([2]; 8 hr): 2.01 ng/mL
tolerability [3]: well-tolerated
stability to acid hydrolysis [4]: resistant to acid hydrolysis
liver inflammation (H&E, neutrophil infiltration) [5]: reduced inflammation
insulitis [6]: reduces insulitis
weight gain [6]: improves weight gain
hyperglycemia ([6]; vs AI5779 or PBS controls): delays hyperglycemia
HMGB1-induced TNF secretion [7]: causes inhibition
liver necrosis (H&E) ([8]; APAP 350 mg/kg, K883 50 μg/mouse IP at 2 and 7 hours, 24 hours post-APAP, vs vehicle): reduced liver necrosis
mice surviving 2 weeks post-APAP ([8]; APAP 400 mg/kg, 50 μg/mouse IP once-a-day for 5 days from 2 hours post-APAP, control group 8): 14 mice out of 15
degradation after incubating 120 minutes [9]: not degraded
TNF secretion induced by other DAMPs [10]: is not inhibited
PAMPs-induced TNF release [11]: failed to inhibit other PAMPS; also recorded: does not inhibit other PAMPs
Paw Withdrawal Latency (sec), CCI ([12]; 0 hours post treatment, K883 800 μg/rat or 2g7 300 μg/rat IP): 4.1 ± 1.0 s
mechanical and thermal hypersensitivity ([12]; 800 μg/rat IP once a day for 3 days, Hargreaves, von Frey): ameliorated both mechanical and thermal hypersensitivity; also recorded: improved CCI-induced thermal and mechanical hypersensitivity
tolerance to repeated treatment ([12]; 800 μg/rat IP once daily for three days, 2 weeks): did not develop tolerance
Paw Withdrawal Latency (sec), CCI ([12]; 2 hours post treatment): 4.3 ± 1.2 s
Paw Withdrawal Latency (sec), CCI ([12]; 6 hours post treatment): 6.0 ± 0.6 s
Paw Withdrawal Latency (sec), CCI ([12]; 24 hours post treatment): 5.0 ± 0.5 s
thermal hypersensitivity ([12]; CCI rats): ameliorated the thermal hypersensitivity
CCI-induced CXCL1 and TNF expression (DRGs) ([12]; DRGs): reduce CCI-induced CSCL1 and TNF expression
CCI-induced CXCL1, TNF and IL-1β expression (spine) ([12]; spine): reduce CCI-induced CSCL1, TNF and IL-1β expression
Plasma concentration ([13]; 0.50 hr): 2913 ng/mL
Plasma concentration ([13]; 1.0 hr): 1091 ng/mL
Plasma concentration ([13]; 2.0 hr): 135 ng/mL
Plasma concentration ([13]; 4.0 hr): 16.6 ng/mL
Plasma concentration ([13]; 8.0 hr): 1.52 ng/mL
AUC [14]: 3770 ng·h/mL

NC(=O)[C@H](CCC(=O)O)NC(=O)[C@H](CO)NC(=O)[C@H](CO)NC(=O)[C@@H](N)Cc1ccccc1 [P5779]
serum levels of ALT and AST ([15]; 500 μg/mouse IP at time of I/R surgery, 6 hours): reduced
liver inflammation (H&E, neutrophil infiltration) ([15]; 6 hours after reperfusion, vs vehicle control): reduced inflammation
HMGB1-induced TNF release from macrophages [16]: inhibit HMGB1-induced TNF release from macrophages in a concentration-dependent manner
serum ALT ([17]; 500 ugs/mouse): significant reductions in ALT
liver necrosis (H&E) ([17]; APAP 350 mg/kg, P5779 50 or 500 μg/mouse IP at 2 and 7 hours, vs scrambled control peptide): reduced liver necrosis
percent survival (2 weeks) post-APAP ([17]; APAP 400 mg/kg, 500 μg/mouse IP once a day for 5 days): significantly improved
TNF release in macrophages stimulated by LPS, PGN, Poly I:C, CpG DNA or S100 A12 [18]: not suppress TNF release
